Results reported in paper PMC9536713, “Synthesis and Preclinical Evaluation of ^177Lu-Labeled Radiohybrid PSMA Ligands for Endoradiotherapy of Prostate Cancer” (Journal of Nuclear Medicine, 2022).
Where two headings read alike, the source gives them in different places. Each block holds one compound with its values, some of them ahead of it.

What was measured:
[1] = Lipophilicity, n-octanol/phosphate-buffered saline distribution (log D7.4); type: physicochemical; conditions: pH 7.4, n = 6
Method: Approximately 1 MBq of the ^177Lu-labeled PSMA ligand was dissolved in 1 mL of a 1:1 mixture (v/v) of phosphate-buffered saline (pH 7.4) and n-octanol (n = 6). After vigorous mixing of the suspension for 3 min, the vial was centrifuged at 15,000g for 3 min, and 100-μL aliquots of both layers were measured in a γ-counter. Finally, the ratio of the radioactivity detected in the n-octanol sample and the phosphate-buffered saline buffer was calculated and expressed as distribution ratio log D7.4.

[2] = molecular target: T1, human serum albumin (HSA) (Homo sapiens, UniProt P02768); test: Binding to HSA by albumin-mediated size-exclusion chromatography (AMSEC), apparent molecular weight; type: in vitro ADME; conditions: HSA buffer at physiologic concentration as mobile phase, room temperature, window 2.1-70.2 kDa
T1 construct: purchased Biowest
T1 sequence (P02768 25-609): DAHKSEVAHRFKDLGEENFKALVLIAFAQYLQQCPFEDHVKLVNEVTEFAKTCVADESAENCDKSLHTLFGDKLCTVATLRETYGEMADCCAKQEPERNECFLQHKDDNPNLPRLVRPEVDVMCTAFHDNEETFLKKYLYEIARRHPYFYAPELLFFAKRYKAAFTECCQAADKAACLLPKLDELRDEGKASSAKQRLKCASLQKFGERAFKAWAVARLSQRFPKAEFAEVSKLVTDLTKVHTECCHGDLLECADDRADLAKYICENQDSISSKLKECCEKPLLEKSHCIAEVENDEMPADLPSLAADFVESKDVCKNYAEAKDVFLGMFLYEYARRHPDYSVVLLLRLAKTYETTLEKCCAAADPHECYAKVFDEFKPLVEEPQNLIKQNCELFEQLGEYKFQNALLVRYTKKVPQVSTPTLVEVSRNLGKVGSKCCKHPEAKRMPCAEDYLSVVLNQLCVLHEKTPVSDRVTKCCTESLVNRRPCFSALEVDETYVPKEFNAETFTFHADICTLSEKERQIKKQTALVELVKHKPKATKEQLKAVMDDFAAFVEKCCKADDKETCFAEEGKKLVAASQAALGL
Method: Binding of ^177Lu-labeled ligands to HSA was assessed by albumin-mediated size-exclusion chromatography (AMSEC), a novel method that has recently been developed by our group to determine the apparent molecular weight (AMW) of a compound in the presence of HSA. A dedicated and detailed description of the AMSEC method will be published elsewhere to cover the context and the development process of this method in its entirety. Briefly, a gel filtration size-exclusion column (Superdex 75 Increase 10/300 GL; fractionation range, 70–3 kDa; GE Healthcare) was calibrated as recommended by the manufacturer using a commercially available set of proteins (Gel Filtration LMW Calibration Kit; GE Healthcare). AMSEC experiments were performed by injection of the various radioligands using an HSA buffer at physiologic concentration (Biowest) as the mobile phase at room temperature. Depending on the strength of the HSA/ligand interaction during the chromatographic procedure, an injected radioligand (1.0 MBq, 10–20 GBq/μmol) can show a reduced retention time that correlates to AMWs higher than the actual, physical, molecular weight (the latter being for all investigated ligands < 2 kDa, and thus below the column fractionation range). The stronger this interaction, the longer the mean time the ligand is bound to HSA during the chromatographic process and the faster the ligand is eluted from the column. By means of calibration, the retention time can be translated into a ligand-specific AMW (expressed in kDa) as a parameter allowing quantification of the extent of HSA binding. The detection window ranges between 2.1 kDa (cutoff value, determined by [^18F]fluoride; no HSA interaction) and 70.2 kDa (experimental molecular weight of HSA; maximum HSA interaction). [^177Lu]Lu-rhPSMA-7.3 served as an internal standard during AMSEC studies (30.4 ± 0.5 kDa; n = 10).

[3] = tested on: LNCaP tumor xenografts; test: Biodistribution and small-animal SPECT/CT in LNCaP tumor-bearing mice, 24 h after injection; type: in vivo, male CB-17 SCID mice
Method: All animal experiments were conducted in accordance with general animal welfare regulations in Germany (German animal protection act, as amended on May 18, 2018, article 141 G, version March 29, 2017, I 626, approval 55.2-1-54-2532-71-13) and the institutional guidelines for the care and use of animals. LNCaP tumor xenografts were established in 6- to 8-wk-old male CB-17 SCID mice as described previously ([8]).
The ^177Lu-labeled PSMA ligands (2–5 MBq; 0.1 nmol) were injected under isoflurane anesthesia into the tail vein of mice, which were euthanized 24 h after injection (n = 4–5). Selected organs were removed, weighed, and measured in a γ-counter. All rhPSMA ligands were evaluated during the same period (first quarter of 2020), whereas ^177Lu-labeled PSMA-617 and PSMA I&T ([17]) were assessed in 2016, using the identical cell line, mouse model, and experimental procedure.
Static images of ^177Lu-labeled ligands in euthanized mice were recorded 24 h after injection directly after blood collection, with an acquisition time of 45 min using a high-energy, general-purpose rat-and-mouse collimator and a stepwise multiplanar bed movement. For imaging studies, a VECTor4 small-animal SPECT/PET/optical imaging/CT device from MILabs was applied. Data were reconstructed using MILabs.Rec software (version 10.02) and PMOD software (version 4.0; PMOD Technologies LLC). After imaging, the mice underwent biodistribution studies.

[4] = molecular target: T2, PSMA (Homo sapiens, UniProt Q04609); test: Competitive binding (IC50) on LNCaP cells against ([125I]IBA)KuE
T2 construct: endogenous in cells; host or cells: LNCaP cells
T2 sequence (Q04609 whole entry): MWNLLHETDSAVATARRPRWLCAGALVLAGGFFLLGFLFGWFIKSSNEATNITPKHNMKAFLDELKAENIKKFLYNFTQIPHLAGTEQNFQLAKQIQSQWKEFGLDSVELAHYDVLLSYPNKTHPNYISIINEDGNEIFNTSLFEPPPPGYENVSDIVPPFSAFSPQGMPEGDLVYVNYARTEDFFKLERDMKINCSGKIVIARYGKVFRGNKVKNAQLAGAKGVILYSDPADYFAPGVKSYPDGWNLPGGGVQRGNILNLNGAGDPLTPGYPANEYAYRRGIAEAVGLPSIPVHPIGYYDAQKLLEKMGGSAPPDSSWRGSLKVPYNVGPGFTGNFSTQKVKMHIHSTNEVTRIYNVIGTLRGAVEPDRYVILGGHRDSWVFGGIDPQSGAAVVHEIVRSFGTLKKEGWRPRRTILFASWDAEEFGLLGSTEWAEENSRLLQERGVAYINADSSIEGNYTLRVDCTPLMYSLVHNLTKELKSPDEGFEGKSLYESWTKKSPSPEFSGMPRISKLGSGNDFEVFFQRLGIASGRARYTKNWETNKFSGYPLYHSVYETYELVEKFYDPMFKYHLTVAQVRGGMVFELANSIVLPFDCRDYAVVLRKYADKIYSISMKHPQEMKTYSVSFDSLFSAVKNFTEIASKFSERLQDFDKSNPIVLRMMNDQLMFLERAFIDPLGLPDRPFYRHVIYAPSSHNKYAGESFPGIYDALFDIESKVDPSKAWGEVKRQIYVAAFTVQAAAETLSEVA
Method: (§1) Competitive binding studies were determined on LNCaP cells (1.5 × 10^5 cells in 0.25 mL/well) after incubation at 4°C for 1 h, using (((S)-1-carboxy-5-(4-([^125I]iodo)benzamido)pentyl)carbamoyl)-L-glutamic acid ([^125I]IBA)KuE; 0.2 nM/well) as the reference radioligand (n = 3). Internalization studies of the radiolabeled ligands (1.0 nM/well) were performed on LNCaP cells (1.25 × 10^5 cells in 0.25 mL/well) at 37°C for 1 h and accompanied by ([^125I]IBA)KuE (0.2 nM/well) as a reference. Data were corrected for nonspecific binding and normalized to the specific internalization observed for the reference (n = 3), as previously published ([8]).

[5] = molecular target: T3, PSMA (LNCaP cells) (Homo sapiens, UniProt Q04609); test: PSMA-mediated internalization into LNCaP cells; type: cell-based; conditions: 1 h, 37°C, 1.0 nM/well, n = 3
T3 construct: endogenous in cells; host or cells: LNCaP cells
T3 sequence (Q04609 whole entry): as above
Method: as §1

[6] = tested on: LNCaP tumor xenografts; set-up: method as in PMID 30136051; conditions: 24 h after injection, cited from earlier work
[7] = set-up: method as in PMID 34531260; conditions: patients; cited from earlier work
[8] = patients; cited from earlier work
[9] = set-up: method as in earlier work; conditions: patients; cited from earlier work
[10] = 24 h after injection, LNCaP tumor-bearing SCID mice, mean ± SD, n = 4-5
[11] = 24 h after injection, LNCaP tumor-bearing mice
[12] = male, CB-17 SCID, mouse, in vivo, 24 h
[13] = LNCaP tumor-bearing SCID mice, identical conditions
[14] = LNCaP tumor-bearing mice, from previously published data

- log D7.4 [1]: −3.8
- apparent molecular weight (AMW) [2]: 25.1 kDa
- kidney uptake as percentage of that of [177Lu]Lu-rhPSMA-7.3 ([3]; 24 h after injection): 20%
- tumor-to-blood ratio, times higher than for [177Lu]Lu-PSMA-617 ([3]; 24 h after injection): 8 times
- tumor-to-blood ratio, times higher than for [177Lu]Lu-rhPSMA-7.3 ([3]; 24 h after injection): 3 times
- kidney uptake [3, 10]: 2.0 ± 0.8 %ID/g
- tumor uptake [3, 10]: 9.8 ± 0.3 %ID/g
- tumor-to-blood ratio [3, 11]: 11,498
- tumor-to-kidney ratio [3, 11]: 5.7
- tracer uptake in tumor of the imaged mouse ([3]; single mouse of SPECT/CT image, 24 h after injection, from subsequent biodistribution): 9.4 %ID/g
SMILES: CC(C)(C)[Si](F)(c1ccc(C(=O)NC[C@@H](NC(=O)CN2CCN(CC(=O)[O-])CCN(CC(=O)[O-])CCN(CC(=O)[O-])CC2)C(=O)N[C@H](CCCCNC(=O)CCC(=O)NCCC[C@@H](NC(=O)CC[C@H](NC(=O)N[C@@H](CCC(=O)O)C(=O)O)C(=O)O)C(=O)O)C(=O)O)cc1)C(C)(C)C.[177Lu+3] [[^177Lu]Lu-rhPSMA-10.1]

SMILES: O=C(O)CC[C@H](NC(=O)N[C@@H](CCCCNC(=O)[C@H](Cc1ccc2ccccc2c1)NC(=O)[C@H]1CC[C@H](CNC(=O)CN2CCN(CC(=O)O)CCN(CC(=O)O)CCN(CC(=O)O)CC2)CC1)C(=O)O)C(=O)O [[^177Lu]Lu-PSMA-617, metal not drawn]
- IC50 [4]: 3.3 ± 0.2 nM
- PSMA-mediated internalization as percentage of reference ligand ([125I]IBA)KuE [5]: 203% ± 10%
- apparent molecular weight (AMW) [2]: 13.7 kDa
- tumor-to-kidney ratio [3, 11]: 5.9
- kidney uptake [3, 12]: 1.4 ± 0.4 %ID/g
- tumor uptake [3, 12]: 7.5 ± 0.9 %ID/g
- tumor-to-blood ratio [3, 12]: 1,424

- IC50 ([4]; LNCaP cells, 1 h, 4°C, ([125I]IBA)KuE 0.2 nM/well as reference radioligand, n = 3, read-out: PSMA binding affinity (half-maximal inhibitory concentration)): 4.2 ± 0.8 nM
- PSMA-mediated internalization as percentage of reference ligand ([125I]IBA)KuE [5]: 145% ± 14%
- apparent molecular weight (AMW) [2]: 5.3 kDa
SMILES: O=C([O-])CC[C@H](NC(=O)N[C@@H](CCCCNC(=O)CCCCCCC(=O)NCCCC[C@@H](NC(=O)[C@@H](Cc1ccccc1)NC(=O)[C@@H](Cc1ccc(O)c(I)c1)NC(=O)CC[C@H](C(=O)[O-])N1CCN(CC(=O)[O-])CCN(CC(=O)[O-])CCN(CC(=O)[O-])CC1)C(=O)[O-])C(=O)[O-])C(=O)[O-].[177Lu+3].[H+].[H+].[H+].[H+].[H+] [[^177Lu]Lu-PSMA I&T]
- kidney uptake [6, 13]: 34.7 ± 17.2 %ID/g
- tumor uptake [6, 13]: 4.1 ± 1.1 %ID/g
- tumor-to-blood ratio [6, 14]: 408
- tumor-to-kidney ratio [6, 14]: 0.2
- effective dose (tumor) [7]: 2.6 ± 2.4 mGy/MBq
- absorbed dose to the kidney [8]: 0.7 ± 0.2 Gy/GBq

SMILES: CC(C)(C)[Si]([18F])(c1ccc(C(=O)NC[C@@H](NC(=O)CC[C@@H](C(=O)O)N2CCN(CC(=O)[O-])CCN(CC(=O)[O-])CCN(CC(=O)[O-])CC2)C(=O)N[C@H](CCCCNC(=O)CCC(=O)NCCC[C@@H](NC(=O)CC[C@H](NC(=O)N[C@@H](CCC(=O)O)C(=O)O)C(=O)O)C(=O)O)C(=O)O)cc1)C(C)(C)C.[Ga+3] [[^18F]Ga-rhPSMA-7.3]
- fold higher tumor uptake than diastereomeric mixture [18F]Ga-rhPSMA-7 [9]: 1.6 fold
- fold lower excretion into the bladder than diastereomeric mixture [18F]Ga-rhPSMA-7 [9]: 5 fold
- fold lower kidney uptake than diastereomeric mixture [18F]Ga-rhPSMA-7 [9]: 1.6 fold
